Data reported in US20100297109A1, “METHODS FOR INHIBITING FASCIN” (Cornell University, priority 2007, published 2010).
Like-named read-outs stand apart in the source and are kept apart here.

What was measured:
[1] = test system: mouse breast tumor 4T1 cells; test: Wound-healing assay, serum-induced migration of 4T1 cells; format: cell-based; conditions: 2 μM
Experimental: (§1) Cells. Mouse 4T1 mammary tumor cells and human MDA-MB-231 breast tumor cells were obtained from ATCC and have been described previously (Shan et al. 2005, Yang et al. 2005). 4T1 cells were cultured in RPMI 1640 medium supplemented with 10% FBS. MDA-MB-231 cells were cultured in DMEM supplemented with 10% FBS. Wound-healing assay. The wound-healing assay involves observing whether confluent cells can migrate across a scrape or wound in the cell layer. Cell migration assays were performed as described previously (Yang et al. 2005, Shan et al 2006). Tumor cells were plated in a 24-well plate coated with gelatin in standard media. After the cells grew to confluence, wounds were made in the confluent layer of cell using a sterile instrument such as a sterile pipette tip. The cells were washed with Phosphate Buffered Saline (PBS) or other sterile solutions and then the migration was induced by adding medium supplemented with 10% FBS. When the wound for the positive control closed, cells were fixed with 3.7% formaldehyde and stained with crystal violet staining solution. […] Photographs several random regions of the filter facing the second chamber are taken and the number of cells counted to calculate the average number of cells that had transmigrated.

4T1 cells [2] = test: Boyden chamber cell migration assay, serum-induced migration of 4T1 cells; format: cell-based, mouse; conditions: FIGS. 1C and 1D
Experimental: as §1, with “media.” for “media. After the cells grew to confluence, wounds were made in the confluent layer of cell using a sterile instrument such as a sterile pipette tip. The cells were washed with Phosphate Buffered Saline (PBS) or other sterile solutions and then the migration was induced by adding medium supplemented with 10% FBS. When the wound for the positive control closed, cells were fixed with 3.7% formaldehyde and stained with crystal violet staining solution.”
(§2) Boyden Chamber Cell Migration Assay. […] Three randomly selected fields (10× objectives) on the lower side of the insert were photographed, and the migrated cells were counted. The migration was expressed as either the average number of migrated cells in a field or as percentage of migrated cells in positive control. Percentage was calculated with the formula P=100×(M−Mnc)/Mpc, where P is the percentage of migrated cells, M is the number of migrated cells, Mnc is the number of migrated cells in negative controls, and Mpc is the number of migrated cells in positive controls.

[3] = test system: human breast tumor MDA-MB-231 cells; test: Wound-healing assay, serum-induced migration of MDA-MB-231 cells; format: cell-based; conditions: 20 μM
Experimental: as §1

[4] = test system: mouse embryonic fibroblast (MEF) cells; test: Wound-healing assay, serum-induced migration of MEF cells; format: cell-based; conditions: 200 μM
[5] = test system: human breast tumor MDA-MB 231 cells; test: Cell migration assay, MDA-MB-231 cells; format: cell-based
Experimental: as §1, with “media.” for “media. After the cells grew to confluence, wounds were made in the confluent layer of cell using a sterile instrument such as a sterile pipette tip. The cells were washed with Phosphate Buffered Saline (PBS) or other sterile solutions and then the migration was induced by adding medium supplemented with 10% FBS. When the wound for the positive control closed, cells were fixed with 3.7% formaldehyde and stained with crystal violet staining solution.”
as §2

[6] = test system: human prostate tumor PC-3 cells; test: Cell migration assay, PC-3 cells; format: cell-based
[7] = test system: human colon tumor Lovo cells; test: Cell migration assay, Lovo cells; format: cell-based
4T1 cells [8] = conditions: serum, Shan et al. 2005; cited from earlier work
fascin = fascin (Homo sapiens, UniProt Q16658); test: GST-fascin and biotin-macroketone interaction; format: binding; design: made in house; host or cells: Escherichia coli BL21; conditions: excess unlabeled compound
Experimental: Whole cell lysates from 4T1 mouse breast tumor cells were made. After preclearing the cell lysate with immobilized neutravidin biotin binding protein (Pierce, IL, USA) to remove biotin and avidin-binding proteins, the cell lysates were loaded to a column packed with the biotin-labeled macroketone (conjugated to neutravidin beads). A control column packed with free biotin and neutravidin beads was run side-by-side. After washing the column with 10 bed volumes of lysis buffer with 300 mM NaCl, the bound proteins were eluted with 0.1 M Glycine-HCl at pH 2.8 according to the manufacturer's instruction. […] Protein Expression and Purification. Recombinant GST-fascin fusion protein was produced in BL21 Escherichia coli. A 1-liter culture was grown to an A600 reading of 1.0 and then induced by addition of 0.3 mM isopropyl 1-thio-D-galactopyranoside (IPTG) for 12 hours at 25° C. Cells were flash frozen and then lysed by sonication in Tris-buffered saline. The supernatant was then incubated with glutathione-Sepharose for 2 h at 4° C. After extensive washing, GST-fascin was eluted and concentrated with a Centricon Plus-20 (Millipore). To remove the GST tag from the fusion protein, beads were incubated with thrombin overnight at 4° C. The supernatant was collected and concentrated. GST-fascin and Biotin-macroketone Interaction. […] Proteins associated with biotin-macroketone were precipitated with Untralink-immobilized NeutrAvidin agarose (Pierce). After extensive washing, bound proteins were eluted with SDS sample buffer and resolved by 10% SDS-PAGE. F-Actin Bundling Assay. Actin bundling activity was measured by low speed centrifugation assay and fluorescence microscopy. In low-speed centrifugation assay, monomeric rabbit G-actin was induced to polymerize at room temperature in F-actin buffer (20 mM Tris-HCl at pH 8, 1 mM ATP, 1 mM DTT, 2 mM MgCl2 and 100 mM KCl). Recombinant fascin proteins or control buffer were subsequently incubated with F-actin for 60 min at room temperature and centrifuged for 30 min at 10,000 g in an Eppendorf 5415D table-top centrifuge.

4T1 tumor cells = test: 4T1 mouse mammary tumor model, spontaneous lung metastasis; format: in vivo
4T1 cells [9] = conditions: read-out: IC50, 4T1 cell migration, cited from earlier work
[10] = Gaul et al. 2004; cited from earlier work
[11] = test system: several types of tumor cells; conditions: Nakae et al. 2000, cited from earlier work
[12] = Njardarson et al. 2004, Gaul et al. 2004

## COC1C=CCCCCC(=O)NCC(C)=CC(C)C1O (centres unmarked) [macrolactam, Migrastatin lactam]
[1]
  inhibition of serum-induced migration (wound-healing): inhibited the migration
4T1 cells [2]
  IC50: 0.255 µM
[3]
  inhibition of serum-induced migration (wound-healing): inhibited the migration
[4]
  effect on serum-induced migration (wound-healing): had no effect
[5]
  inhibition of migration: inhibited the migration
[6]
  inhibition of migration: inhibited the migration
[7]
  inhibition of migration: inhibited the migration
4T1 cells [8]
  formation of lamellipodia at the leading edge: inhibited the formation of lamellipodia
fascin
  competition of binding of biotin-conjugated macroketone to fascin: competed the binding

## COC1C=CCCCCC(=O)OCC(C)=CC(C)C1O (centres unmarked) [macrolactone]
4T1 tumor cells; 20 mg/kg
  effect on 4T1 tumor metastasis: statistically significant, it was much less than those of macroketone and macrolactam
4T1 cells [9]; macrolactone, Gaul et al. 2004
  IC50: 0.024 µM
[10]
  half-life in mouse plasma: < 5 min

## C=CC(OC)C(O[Si](C)(C)C(C)(C)C)C(C)C=C(C)CO (centres unmarked) [migrastatin semi-core, reference compound]
4T1 tumor cells; 10 and 20 mg/kg
  effect on 4T1 tumor metastasis: did not significantly reduce
4T1 cells [9]; [12]
  IC50: 40 µM

## CO[C@H]1/C=C/CC/C=C/C(=O)OC([C@H](C)C(=O)CCCC2CC(=O)NC(=O)C2)/C(C)=C\[C@@H](C)[C@@H]1O (some centres unmarked) [migrastatin, Migrastatin]
4T1 cells [9]; [12]
  IC50: 29 µM
[11]
  biosyntheses of DNA, RNA, and protein: has no effect
[11]; high micromolar concentrations
  migration of tumor cells in vitro: inhibits the migration
